# Test results reported in US9006454B2, “Dihydroorotate dehydrogenase inhibitors” (Merck Serono S.A., priority 2009, dated 2015).
# What was measured:
# DHODH = DHODH (Homo sapiens (Human), UniProt Q02127); assay: DHODH activity assay (coupled enzyme assay, DCIP reduction, absorbance at 610 nm); assay type: biochemical; conditions: for inhibition at 10 µM: compound at 10 uM, read-out: inh @ 10 uM hDHODH (%)
# Jurkat cells = assay: Measurement of cell proliferation (Jurkat cell), XTT assay; assay type: cell-based; conditions: Homo sapiens, Jurkat; for inhibition at 1 µM: compound at 1 uM, read-out: % inh Jurkat_cells @ 1 uM (%)
# Method in brief: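 Jurkat T cells, 100,000 per well in RPMI with 10% FBS, exposed 72 h at 37 °C to serial compound dilutions (typically from 10 μM, half-log steps, triplicate) at 0.25–0.5% DMSO. Viability by XTT/PMS, A465 after 2 h, media background subtracted, untreated cells as 100%; EC50 from curve fit.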
# Sequence of DHODH (Q02127 whole entry): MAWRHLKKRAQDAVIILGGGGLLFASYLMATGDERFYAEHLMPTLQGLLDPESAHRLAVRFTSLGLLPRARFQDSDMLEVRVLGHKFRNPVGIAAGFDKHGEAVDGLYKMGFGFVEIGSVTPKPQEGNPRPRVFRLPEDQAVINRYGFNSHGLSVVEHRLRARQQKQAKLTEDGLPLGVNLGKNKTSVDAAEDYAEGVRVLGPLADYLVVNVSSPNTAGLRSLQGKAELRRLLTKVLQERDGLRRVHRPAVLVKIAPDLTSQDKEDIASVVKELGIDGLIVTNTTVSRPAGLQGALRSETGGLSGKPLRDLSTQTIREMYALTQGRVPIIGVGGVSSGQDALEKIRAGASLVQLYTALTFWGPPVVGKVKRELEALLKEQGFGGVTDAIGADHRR
SMILES,IC50 (DHODH) [nM],inhibition at 10 µM (DHODH) [%],inhibition at 1 µM (Jurkat cells) [%],"EC50 (Jurkat cells; 72 h, XTT cell viability) [nM]"
Cc1cc(C#N)c2nc(-c3c(F)c(F)c(-c4ccccc4)c(F)c3F)[nH]c2c1 [I109],1650,87,49,–
Cc1ccc(C)n1-c1c(F)c(F)c(-c2nc3cccc(C(=O)O)c3[nH]2)c(F)c1F [I110],110,106,97,–
Cc1cc(C(=O)O)c2nc(-c3ccc(-c4cnn(Cc5ccccc5)c4)cc3)[nH]c2c1 [I111],155,91,62,–
Cc1cc(C(=O)O)c2nc(-c3ccc(-c4ccc(Oc5ccccc5C#N)cc4)cc3)[nH]c2c1 [I112],2030,85,49,–
Cc1cc(C(=O)O)c2nc(-c3ccc(-c4ccc(OCc5ccncc5)cc4)cc3)[nH]c2c1 [I114],1730,65,49,–
Cc1cc(C(=O)O)c2nc(-c3ccc(-c4cccc(OCc5ccccc5)c4)cc3)[nH]c2c1 [I115],1200,88,52,–
Cc1cc(C(=O)O)c2nc(-c3ccc(-c4cccc(O)c4)cc3)[nH]c2c1 [I116],862,78,59,–
Cc1cc(C(=O)O)c2nc(-c3ccc(-c4ccc(O)cc4)cc3)[nH]c2c1 [I117],350,102,76,–
O=C(O)c1cccc2[nH]c(-c3ccc(-c4cccc(OCc5ccccc5)c4)cc3)nc12 [I118],1300,84,41.4,–
Cc1cc(C(=O)O)c2nc(-c3ccc(-c4ccc(OCc5ccccn5)cc4)cc3)[nH]c2c1 [I119],2230,88.1,40.3,–
Cc1cc(C(=O)O)c2nc(-c3ccc(-c4ccc(OCc5cccnc5)cc4)cc3)[nH]c2c1 [I120],755,89.9,66.1,–
Cc1cc(C(=O)O)c2[nH]c(-c3ccc(-n4c(C)ccc4C)cc3)nc2c1 [I121],401,108,70.7,–
O=C(O)c1cccn2nc(-c3ccc(-c4ccccc4)cc3)nc12 [I122],1200,88,55.4,–
Cc1cc(C(=O)O)c2c(c1)nc(-c1c(F)c(F)c(-c3ccccc3)c(F)c1F)n2C [I123],3,105,111,41
O=C(O)c1cccc2nc(-c3c(F)c(F)c(-c4cccs4)c(F)c3F)[nH]c12 [I124],500,104,80.1,–
O=C(O)c1cccc2nc(-c3c(F)c(F)c(-c4cccc(F)c4)c(F)c3F)[nH]c12 [I125],28.2,97,92,–
Cc1cc(C(=O)O)c2[nH]c(-c3c(F)c(F)c(-c4cccc(F)c4)c(F)c3F)nc2c1 [I126],8.86,97,94,–
Cc1cc(C(=O)O)c2nc(-c3c(F)c(F)c(-c4ccc(OCc5ccccc5)cc4)c(F)c3F)[nH]c2c1 [I127],48,101,96,–
O=C(O)c1cccc2[nH]c(-c3c(F)c(F)c(-c4cccc(F)c4F)c(F)c3F)nc12 [I128],209,73.1,64.9,–
O=C(O)c1cccc2[nH]c(-c3c(F)c(F)c(-c4cc(F)cc(F)c4)c(F)c3F)nc12 [I129],20,90.8,70.5,–
O=C(O)c1cccc2[nH]c(-c3c(F)c(F)c(-c4ccc(F)c(F)c4)c(F)c3F)nc12 [I130],1220,66.9,23.2,–
O=C(O)c1cccc2[nH]c(-c3c(F)c(F)c(-c4ccccc4F)c(F)c3F)nc12 [I131],18,79.3,78.8,–
O=C(O)c1cccc2[nH]c(-c3c(F)c(F)c(-c4ccc(OCc5ccccc5)cc4)c(F)c3F)nc12 [I132],378,91.5,67.8,–
O=C(O)c1cccc2[nH]c(-c3c(F)c(F)c(-c4ccc(F)cc4)c(F)c3F)nc12 [I133],808,101,54.7,–
Cc1cc(C(=O)O)c2nc(-c3c(F)c(F)c(-c4ccc(F)cc4)c(F)c3F)[nH]c2c1 [I134],118,88.1,77.9,–
Cc1cc(C(=O)O)c2nc(-c3ccc(-c4ccc(Oc5ccc(C=O)cc5)cc4)cc3)[nH]c2c1 [I135],1590,65.1,21.8,–
O=C(O)c1cccc2[nH]c(-c3c(F)c(F)c(-c4cccnc4)c(F)c3F)nc12 [I136],282,89.5,68.4,–
